Laboratory results: article PMC9494960, “Antiamoebic Activity of Imidazothiazole Derivatives against Opportunistic Pathogen Acanthamoeba castellanii” (Antibiotics, 2022)

Columns and labels:
[1] = tested on: A. castellanii genotype T4 (ATCC 50492) trophozoites; experiment: Amoebicidal assay (Trypan blue exclusion, haemocytometer counting); format: cell-based, Acanthamoeba castellanii; settings: for Amoebicidal Activity Inhibition % ± SEM: 50 µM concentration, Supplementary Table S1; for amoebicidal effects / antiamoebic activity against A. castellanii: 50 µM, 24 h, 30 °C; for IC50: tested at 12.5, 25, 50 and 100 µM against A. castellanii
Procedure: A. castellanii genotype T4 (ATCC 50492) trophozoites were used in this study. The amoebae were axenically cultivated at 30 °C in T-75 cm^3 culture flask using a proteose-peptone yeast extract-glucose (PYG) broth culture. Upon confluency, amoeba cultured flask was placed on ice for 10 min followed by gently tapping to dislodge the adhered trophozoites. Next, culture was centrifuged at 3000× g for 5 min. The supernatant was discarded and the pellet was re-suspended in 1 mL of Roswell Park Memorial Institute (RPMI) media. Finally, amoebae were counted via haemocytometer microscopically and the desired initial inoculum (5 × 10^5) was adjusted and used in different assays. Different molecules were tested against A. castellanii to examine their antiamoebic effects as previously reported. Briefly, A. castellanii (5 × 10^5) were incubated with 50 µM of the tested compounds for 24 h at 30 °C with a final assays volume of 0.5 mL in a 24-well plate. For controls, amoebae cultured in RPMI alone and with 0.25% sodium dodecyl sulfate (SDS) was taken as negative and positive control, respectively. Finally, each well was stained with Trypan blue (0.1%) and viable amoebae trophozoites were enumerated by haemocytometer. In some trails, these compounds were tested at different concentrations (12.5, 25, 50 and 100 µM) to determine their 50% inhibitory concentration (IC50) against A. castellanii.

[2] = tested on: A. castellanii binding to HeLa cells; experiment: Adhesion assay: amoebae binding to human cells; format: cell-based, Acanthamoeba castellanii; settings: amoebae pre-treated with 50 µM for 2 h; 60 min on HeLa monolayer
Procedure: Adhesion assays were performed to determine how the tested molecules affect the binding capability of amoebae to human cells. Firstly, A. castellanii (5 ×10^5) trophozoites were treated with 50 µM of the compounds in serum-free RPMI medium at 30 °C for 2 h. Next, pre-treated amoebae were centrifuged at 3000× g for 5 min and re-suspended the amoeba in 200 µL of RPMI medium. The total assay volume including pre-treated amoeba was transferred to a confluent HeLa cell monolayer cultured in 96-well plates. For control, amoebae trophozoites alone were added to HeLa cell monolayer. The plates were incubated for 60 min at 37 °C with 5% CO2 and 95% humidity and amoebae (unbound) were then counted by haemocytometer. Percent bound amoebae was calculated using the following formula: % amoebae (bound) = 100 − amoebae (unbound)(1)

[3] = tested on: A. castellanii trophozoites; experiment: Encystation assay; format: cell-based, Acanthamoeba castellanii; settings: 50 µM, 16% glucose, 30 °C, 48–72 h; negative control 100%
Procedure: Encystation assays were performed to determine the effects of the tested compounds to prevent the differentiation of A. castellanii trophozoites into the cyst form and 50 µM of the tested compounds were utilized. Briefly, A. castellanii (1 × 10^6) trophozoites were incubated with these compounds with 16% filter-sterilized glucose (as encystation medium) at 30 °C 48–72 h. A. castellanii cultured alone in 16% glucose was taken as negative control. After this incubation, 0.1% sodium dodecyl sulfate (SDS) was added to each well and agitated the plate for 20 min. The SDS resistant cysts were enumerated using a haemocytometer and data was recoded.

[4] = tested on: HeLa cells; experiment: In vitro cytotoxicity, lactate dehydrogenase (LDH) assay; format: cell-based, human; settings: 50 µM, 24 h, LDH release
Procedure: HeLa cells were obtained from the American Type Culture Collection (ATCC CCL-2) and grown at 37 °C with 5% CO2 and 95% humidity in RPMI supplemented with 10% fetal bovine serum (FBS), 1% minimum essential medium amino acids, 1% Penicillin-Streptomycin (Pen-Strep) and 1% L-glutamine. The media was removed aseptically, and cells were detached enzymatically using 2 mL of trypsin EDTA. Next, culture containing dislodged cells was centrifuged at 2500× g for 5 min. The cell pellet was resuspended in the above-mentioned media, subsequently added into 96-well plates and utilized in different assays. In vitro cytotoxic effects of the tested molecules were determined using Lactate dehydrogenase (LDH) assays against human cells. In brief, 50 µM concentration of the tested compounds were incubated with HeLa cells monolayer for 24 h at 37 °C with 5% CO2 in humidified conditions. After this incubation, 0.1% triton X-100 was added to the positive control wells and incubated the plate for 45 min at 37 °C. Then, an equal volume of cells supernatant containing liberated LDH enzyme was mixed with an equal volume of LDH kit reagents (Cytotoxicity Detection kit; Roche Diagnostics, Indianapolis, IN, USA). The positive and negative controls were cell monolayers treated with 0.1 percent Triton X-100 and in RPMI alone. The plate was subjected to multi-plate reader and absorbance was recorded at 490 nm. The percent cytotoxicity was calculated using given formula; % Cell cytotoxicity = sample value − negative control value/positive control value − negative control value × 100.

[5] = tested on: human cell lines; experiment: MTT assay (EC50/CC50 and MNTD90); format: cell-based; settings: for EC90: Maximum Non-Toxic Dose, read-out: MNTD/EC90; for CC50: 50% effective/cytotoxic concentration (CC50), tested at 12.5–100 µM
[6] = tested on: A. castellanii; design: method as in PMID 34959694; settings: cited from earlier work
[7] = tested on: A. castellanii-mediated HeLa cell death; experiment: Amoeba-mediated host cell cytotoxicity (cytopathogenicity assay, LDH); format: cell-based, Acanthamoeba castellanii; settings: amoebae pre-treated with 50 µM for 2 h; HeLa overnight; negative control amoeba + cells 100%
Procedure: Cytopathogenicity assays were accomplished to determine the amoeba-mediated host cell death. A. castellanii (5 × 10^5) trophozoites were treated with 50 µM of the tested molecules at 30 °C for 2 h. Culture containing pre-treated amoebae was centrifuged at 3000× g for 5 min and pellet was re-suspended in 200 µL of serum free RPMI. The whole assay volume with pre-treated amoebae was transferred to HeLa cell monolayer cultured in a 96 well plates. Next, the plates were kept for overnight at 37 °C with 95% humidity and 5% CO2. Finally, amoeba-mediated host cell cytotoxicity was evaluated indirectly by measuring the amount of LDH enzyme released into cell media by damaged cells, as reported earlier.

[8] = tested on: V600E-B-RAF; design: method as in PMID 32962435; settings: cited from earlier work
[9] = tested on: C-RAF; design: method as in PMID 32962435; settings: cited from earlier work

Row | Compound | Amoebicidal Activity Inhibition % ± SEM [1] | amoebicidal effects / antiamoebic activity against A. castellanii [1] [%] | IC50 [1] [µM] | inhibition of amoebae binding to human cells [2] [%] | encystation blocked (trophozoites prevented from converting into cysts) [3] [%] | cytotoxicity against HeLa cells [4] [%] | EC90 [5] [µM] | concentration that prevented excystment in A. castellanii [6] [µM] | CC50 [5] [µM] | amoeba-mediated host cell death reduced up to [7] [%] | inhibitory effects against V600E-B-RAF kinase [8] | inhibitory effects against C-RAF kinase [9]
1 | CN1CCN(CCNc2nccc(-c3c(-c4cccc(O)c4)nc4sccn34)n2)S1(=O)=O [Compound 1zd] | 58.00% ± 3.41% | 58 | 41 | 42 | 62 | 37 | 145 | – | – | – | – | –
2 | CNCC(=O)OCc1cccnc1N(C)C(=O)OC(C)[n+]1cnn(C[C@](O)(c2cc(F)ccc2F)[C@@H](C)c2nc(-c3ccc(C#N)cc3)cs2)c1.O=S(=O)([O-])O (stereo partly shown) [isavuconazonium sulfate] | – | – | – | – | – | – | – | 136 | – | – | – | –
3 | O=C(NCCNc1nccc(-c2c(-c3cccc(O)c3)nc3sccn23)n1)c1ccc(N2CCOCC2)c(C(F)(F)F)c1 [Compound 1zb] | 67.00% ± 3.19% | 67 | 32.4 | 55 | 78 | – | 24.1 | – | 434 | 46 | – | –
4 | O=C(NCCNc1nccc(-c2c(-c3ccc(F)cc3)nc3sccn23)n1)c1cc(C(F)(F)F)cc(C(F)(F)F)c1 [Compound 1i] | 55.05% ± 1.25% | 55 | 43.1 | 42 | 60 | – | 90.9 | – | 1410 | 45 | – | –
5 | COc1cccc(-c2nc3sccn3c2-c2ccnc(NCCNC(=O)Nc3cccc(C(F)(F)F)c3)n2)c1 [Compound 1m] | 69.17% ± 2.39% | 70 | 30 | 61 | 72 | – | 29.5 | – | 313 | 33 | modest inhibitory effects | modest inhibitory effects
